Values after ≈ are worked out from the molar mass of the structure shown. Read-outs that look alike come from different tables or passages of the source.
Key:
[1] = tested on: E. coli TOP10 (GyrA^WT, ParC^WT); assay: microbe, parasite or virus in culture; type: cell-based; conditions: Escherichia coli
[2] = tested on: E. coli TOP10-3 (GyrA^P35L, ParC^D79N); assay: MIC, antibacterial susceptibility (CLSI); type: cell-based; conditions: Escherichia coli
[3] = tested on: uropathogens, including Escherichia coli; conditions: cited from earlier work

Structure (SMILES): O=c1ccc2ncc(=O)n3c2n1C[C@H]3CN1CCC(NCc2cc3c(cn2)OCCC3)CC1 [gepotidacin]
- MIC [1]: 0.125 µg/mL (≈ 0.279 µM)
- MIC [2]: 16 µg/mL (≈ 35.7 µM)
- clinical efficacy versus nitrofurantoin ([3]; EAGLE-3 phase III trial): demonstrated statistically significant superiority versus nitrofurantoin
- clinical efficacy versus nitrofurantoin ([3]; phase III trials, patients with confirmed uncomplicated urinary tract infection and uropathogen susceptible to nitrofurantoin): demonstrated noninferiority to nitrofurantoin

Source: publication PMC11015057 (ACS Infectious Diseases, 2024)
